Read-outs that look alike come from different tables or passages of the source.
Tests used:
MCF7 = experiment: CellTiter-Glo Viability Assay, breast cancer; assay type: cell-based; conditions: Homo sapiens, 96 h; MCF7, breast cancer, four days; read-out: EC50
T47D = experiment: CellTiter-Glo Viability Assay, breast cancer; assay type: cell-based; conditions: Homo sapiens, 96 h, breast cancer, four days, read-out: EC50
CAMA1 = experiment: CellTiter-Glo Viability Assay, breast cancer; assay type: cell-based; conditions: Homo sapiens, CAMA-1, 96 h; CAMA1, breast cancer, four days; read-out: EC50
MDA-MB-231-Luc = experiment: CellTiter-Glo Viability Assay, breast cancer; assay type: cell-based; conditions: Homo sapiens, 96 h; MDA-MB-231-Luc, breast cancer, four days; read-out: EC50
HCC1599 = experiment: CellTiter-Glo Viability Assay, breast cancer; assay type: cell-based; conditions: Homo sapiens, 96 h; HCC1599, breast cancer, four days; read-out: EC50
BT-549 = experiment: CellTiter-Glo Viability Assay, breast cancer; assay type: cell-based; conditions: Homo sapiens, 96 h; BT-549, breast cancer, four days; read-out: EC50
DU4475 = experiment: CellTiter-Glo Viability Assay, breast cancer; assay type: cell-based; conditions: Homo sapiens, DU-4475, 96 h; DU4475, breast cancer, four days; read-out: EC50
ZR-75-1 = experiment: CellTiter-Glo Viability Assay, breast cancer; assay type: cell-based; conditions: Homo sapiens, 96 h; ZR-75-1, breast cancer, four days; read-out: EC50
[1] = test system: ovarian cancer (4 cell lines); experiment: CellTiter-Glo Viability Assay, ovarian cancer; assay type: cell-based; conditions: Homo sapiens, inhibition of cancer cell proliferation
[2] = test system: pancreatic cancer (8 cell lines); experiment: CellTiter-Glo Viability Assay, pancreatic cancer; assay type: cell-based; conditions: Homo sapiens, inhibition of cancer cell proliferation
[3] = test system: liver cancer (3 cell lines); experiment: CellTiter-Glo Viability Assay, liver cancer; assay type: cell-based; conditions: Homo sapiens, inhibition of cancer cell proliferation
[4] = test system: colorectal cancer (6 cell lines); experiment: CellTiter-Glo Viability Assay, colorectal cancer; assay type: cell-based; conditions: Homo sapiens, inhibition of cancer cell proliferation
CLK2 = target: T1, CLK2 (Homo sapiens, UniProt P49760); experiment: CLK2 kinase activity assay (Z-lyte, Ser/Thr 6 peptide); assay type: biochemical; conditions: recombinant CLK2 kinase, ATP 60 μM; read-out: EC50
T1 construct: purchased Thermo Fisher (Life Technologies), Z'-LYTE Kinase Assay Kits
Experimental: All reactions were performed in duplicate.

CLK3 = CLK3 (Homo sapiens, UniProt P49761); experiment: CLK3 kinase activity assay (Z-lyte, Ser/Thr 18 peptide)
[5] = test system: haematopoietic & lymphoid tumors (13 cell lines); experiment: CellTiter-Glo Viability Assay, haematopoietic & lymphoid tumors; assay type: cell-based; conditions: Homo sapiens, inhibition of cancer cell proliferation
[6] = test system: prostate cancer (5 cell lines); experiment: CellTiter-Glo Viability Assay, prostate cancer; assay type: cell-based; conditions: Homo sapiens
[7] = test system: lung cancer (4 cell lines); experiment: CellTiter-Glo Viability Assay, lung cancer; assay type: cell-based; conditions: Homo sapiens, inhibition of cancer cell proliferation
all 50 cell lines = experiment: CellTiter-Glo Viability Assay, average across all cell lines; assay type: cell-based; conditions: Homo sapiens; across all 50 cell lines; read-out: average EC50 for inhibition of cancer cell proliferation
How it was run: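 Proliferation of a multi-tissue human cancer line panel is assessed over four days at 37° C and 5% CO2, seeding 300-3,000 cells/well. Viability is quantified by CellTiter-Glo luminescence, and EC50 values are calculated.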

T1 sequence (P49760 whole entry): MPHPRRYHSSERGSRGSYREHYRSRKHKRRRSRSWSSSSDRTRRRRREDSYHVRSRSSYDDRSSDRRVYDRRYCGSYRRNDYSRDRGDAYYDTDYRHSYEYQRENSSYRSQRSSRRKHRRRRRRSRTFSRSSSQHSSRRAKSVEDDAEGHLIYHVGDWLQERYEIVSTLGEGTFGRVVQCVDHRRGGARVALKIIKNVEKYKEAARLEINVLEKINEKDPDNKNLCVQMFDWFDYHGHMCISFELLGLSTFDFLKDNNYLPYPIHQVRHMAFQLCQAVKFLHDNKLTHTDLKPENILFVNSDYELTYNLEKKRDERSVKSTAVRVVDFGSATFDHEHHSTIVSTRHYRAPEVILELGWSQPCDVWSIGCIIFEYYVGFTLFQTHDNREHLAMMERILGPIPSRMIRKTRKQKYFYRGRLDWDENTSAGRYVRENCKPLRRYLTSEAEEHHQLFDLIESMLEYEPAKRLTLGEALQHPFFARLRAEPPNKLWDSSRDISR
Chain of CLK3 (P49761 whole entry): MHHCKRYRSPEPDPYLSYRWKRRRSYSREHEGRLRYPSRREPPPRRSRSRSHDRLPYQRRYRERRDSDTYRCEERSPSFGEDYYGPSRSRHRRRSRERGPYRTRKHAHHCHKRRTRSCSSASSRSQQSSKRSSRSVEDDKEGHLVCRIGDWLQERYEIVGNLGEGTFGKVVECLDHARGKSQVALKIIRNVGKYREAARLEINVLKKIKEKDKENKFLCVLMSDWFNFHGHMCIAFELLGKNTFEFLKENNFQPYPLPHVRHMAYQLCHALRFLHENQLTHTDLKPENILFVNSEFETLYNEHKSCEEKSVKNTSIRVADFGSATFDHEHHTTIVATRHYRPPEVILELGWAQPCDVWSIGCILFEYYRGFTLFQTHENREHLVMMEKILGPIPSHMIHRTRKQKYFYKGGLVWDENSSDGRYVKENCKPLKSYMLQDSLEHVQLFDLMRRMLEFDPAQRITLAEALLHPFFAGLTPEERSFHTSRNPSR

Cn1ncc(-c2ccc3cnc(NC(=O)C4CC5(C4)CN(CCF)C5)cc3c2)c1CN1CCCCC1 [Compound 77]
EC50 (MCF7): 1280 nM
EC50 (T47D): 1020 nM
EC50 (CAMA1): 1850 nM
EC50 (MDA-MB-231-Luc): 890 nM
EC50 (HCC1599): 606 nM
EC50 (BT-549): 549 nM
EC50 (DU4475): 452 nM
EC50 (ZR-75-1): 826 nM
EC50 ([1]; PA-1, PA1 cell line, read-out: Ovarian cancer, EC50 (μM) PA1): 0.71 µM
EC50 ([1]; TOV112D, TOV-112D cell line, read-out: Ovarian cancer, EC50 (μM) TOV-112D): 0.457 µM
EC50 ([1]; OV-90 cell line, read-out: Ovarian cancer, EC50 (μM) OV-90): 0.806 µM
EC50 ([1]; OVCAR-3 cell line, read-out: Ovarian cancer, EC50 (μM) OVCAR-3): 0.204 µM
EC50 ([2]; BXPC-3, BxPC3 cell line, read-out: Pancreatic cancer, EC50 BxPC3): 422 nM
EC50 ([2]; CAPAN-1, Capan1 cell line, read-out: Pancreatic cancer, EC50 Capan1): 673 nM
EC50 ([2]; Capan-2, Capan2 cell line, read-out: Pancreatic cancer, EC50 Capan2): 495 nM
EC50 ([2]; MIA PaCa-2 cell line, read-out: Pancreatic cancer, EC50 MIA PaCa-2): 318 nM
EC50 ([2]; PANC 05.04 cell line, read-out: Pancreatic cancer, EC50 PANC 05.04): 635 nM
EC50 ([2]; PANC-1 cell line, read-out: Pancreatic cancer, EC50 PANC-1): 659 nM
EC50 ([2]; UPAFII cell line, read-out: Pancreatic cancer, EC50 UPAFII): 660 nM
EC50 ([3]; SNU-398, SNU398 cell line, read-out: Liver cancer, EC50 SNU398): 339 nM
EC50 ([3]; HEPG2 cell line, read-out: Liver cancer, EC50 HEPG2): 766 nM
EC50 ([3]; PLC/PRF/5 cell line, read-out: Liver cancer, EC50 PLC/PRF/5): 2190 nM
EC50 ([4]; HCT-116, HCT116 cell line, read-out: Colorectal cancer, EC50 (μM) HCT116): 0.294 µM
EC50 ([4]; HT-29, HT29 cell line, read-out: Colorectal cancer, EC50 (μM) HT29): 0.537 µM
EC50 ([4]; SW-620, SW620 cell line, read-out: Colorectal cancer, EC50 (μM) SW620): 0.187 µM
EC50 ([4]; DLD-1 cell line, read-out: Colorectal cancer, EC50 (μM) DLD-1): 0.229 µM
EC50 ([4]; SW48 cell line, read-out: Colorectal cancer, EC50 (μM) SW48): 0.12 µM
EC50 ([4]; SW480 cell line, read-out: Colorectal cancer, EC50 (μM) SW480): 0.383 µM
EC50 (CLK2): 5.8 nM
EC50 (CLK3): 50 nM
EC50 ([5]; DND41, DND-41 cell line, read-out: Haematopoietic & Lymphoid tumors, EC50 (μM) DND-41): 0.854 µM
EC50 ([5]; MV4-11, MV-4-11 cell line, read-out: Haematopoietic & Lymphoid tumors, EC50 (μM) MV-4-11): 0.069 µM
EC50 ([5]; Rec1, REC-1 cell line, read-out: Haematopoietic & Lymphoid tumors, EC50 (μM) REC-1): 0.361 µM
EC50 ([5]; SU-DHL-4, SUDHL4 cell line, read-out: Haematopoietic & Lymphoid tumors, EC50 (μM) SUDHL4): 0.424 µM
EC50 ([5]; HL-60 cell line, read-out: Haematopoietic & Lymphoid tumors, EC50 (μM) HL-60): 1.78 µM
EC50 ([5]; JM1 cell line, read-out: Haematopoietic & Lymphoid tumors, EC50 (μM) JM1): 0.375 µM
EC50 ([5]; JURKAT, Clone E6-1 cell line, read-out: Haematopoietic & Lymphoid tumors, EC50 (μM) JURKAT, Clone E6-1): 0.699 µM
EC50 ([5]; JeKo-1 cell line, read-out: Haematopoietic & Lymphoid tumors, EC50 (μM) JeKo-1): 0.469 µM
EC50 ([5]; KASUMI-1 cell line, read-out: Haematopoietic & Lymphoid tumors, EC50 (μM) KASUMI-1): 0.197 µM
EC50 ([5]; Loucy cell line, read-out: Haematopoietic & Lymphoid tumors, EC50 (μM) Loucy): 0.368 µM
EC50 ([5]; MOLT-4 cell line, read-out: Haematopoietic & Lymphoid tumors, EC50 (μM) MOLT-4): 1.22 µM
EC50 ([5]; TF-1 cell line, read-out: Haematopoietic & Lymphoid tumors, EC50 (μM) TF-1): 0.944 µM
EC50 ([5]; TOLEDO cell line, read-out: Haematopoietic & Lymphoid tumors, EC50 (μM) TOLEDO): 0.584 µM
EC50 ([6]; DU-145, read-out: Prostate cancer EC50 Du-145): 734 nM
EC50 ([6]; PC-3, PC3 cell line, inhibition of cancer cell proliferation, read-out: Prostate cancer EC50 PC3): 901 nM
EC50 ([6]; 22Rv1 cell line, inhibition of cancer cell proliferation, read-out: Prostate cancer EC50 22Rv1): 814 nM
EC50 ([6]; LNCap clone FGC cell line, inhibition of cancer cell proliferation, read-out: Prostate cancer EC50 LNCap clone FGC): 432 nM
EC50 ([6]; VCaP (Sigma) cell line, inhibition of cancer cell proliferation, read-out: Prostate cancer EC50 VCaP (Sigma)): 1220 nM
EC50 ([7]; A-427, A427 cell line, read-out: Lung cancer, EC50 (μM) A427): 0.973 µM
EC50 ([7]; HCC78, HCC-78 cell line, read-out: Lung cancer, EC50 (μM) HCC-78): 1.28 µM
EC50 ([7]; NCI-H460 cell line, read-out: Lung cancer, EC50 (μM) NCI-H460): 0.649 µM
EC50 ([7]; NCI-H522 cell line, read-out: Lung cancer, EC50 (μM) NCI-H522): 0.312 µM
EC50 (all 50 cell lines): 684 nM

Source: US20220062240A1, “METHODS OF TREATING CANCER USING A CLK INHIBITOR” (BioSplice Therapeutics, Inc., priority 2018, published 2022)
